The source made the active and inactive calls. The rule behind the calls is not given here.
Key:
[1] = biological target: Ribosomal protein S6 kinase alpha-4 (Homo sapiens) (UniProt O75676); experiment: Inhibition of ADP(ATP)-biotin probe binding to MSK2 domain 1 in human Kelly cells at 1 uM incubated for 6 hrs by KiNativ profiling analysis; type: cell-based
[2] = biological target: T1, Cyclin-dependent kinase 12/13 (Homo sapiens) (UniProt Q14004+Q9NYV4); experiment: Inhibition of THZ1-biotin binding from CDK12/13 in human Jurkat cells incubated for 3 hrs followed by drug wash-out for 24 hrs by competitive pull down assay; type: cell-based
[3] = biological target: Cyclin-dependent kinase 13/Cyclin-K (Homo sapiens, UniProt Q14004); experiment: Inhibition of human recombinant CDK13/CyclinK assessed as reduction in substrate phosphorylation using His-c-Myc as substrate preincubated with enzyme for 5 mins followed by substrate addition for 15 mins in presence of [gamma 32P-ATP] by radioactive kinase assay; type: protein-complex assay
[4] = biological target: Serine/threonine-protein kinase 16 (Homo sapiens) (UniProt O75716); experiment: Inhibition of ADP(ATP)-biotin probe binding to MPSK1 in human Kelly cells at 1 uM incubated for 6 hrs by KiNativ profiling analysis; type: cell-based
[5] = Downregulation of RNA polymerase 2 CTD phosphorylation at Ser5 residue in human Jurkat cells at 2.5 uM incubated for 6 hrs by immunoblotting analysis; type: functional
[6] = Downregulation of RNA polymerase 2 CTD phosphorylation at Ser5 residue in human Jurkat cells at 0.5 uM incubated for 6 hrs by immunoblotting analysis; type: functional
[7] = biological target: Cyclin-dependent kinase 7 (Homo sapiens) (UniProt P50613); experiment: Inhibition of ADP(ATP)-biotin probe binding to CDK7 in human Kelly cells at 1 uM incubated for 6 hrs by KiNativ profiling analysis; type: cell-based
[8] = Selectivity ratio of IC50 for human Kelly cells harboring CDK12 C1039F mutant to IC50 for human Kelly cells harboring wild type CDK12; type: functional
[9] = Antiproliferative activity against human Kelly cells harboring CDK12 C1039F mutant assessed as reduction in cell viability incubated for 72 hrs by CellTiter-Glo assay; type: functional, cell-based
[10] = Downregulation of RNA polymerase 2 CTD phosphorylation at Ser5 residue in human Jurkat cells at 5 uM incubated for 6 hrs by immunoblotting analysis; type: functional
[11] = Toxicity in nude mouse xenografted with human TC71 cells assessed as body weight loss at 10 mg/kg, ip for 21 days; type: organism-based; details: in vivo, 504 h, time 21 day
[12] = biological target: T1, Cyclin-dependent kinase 12/13 (Homo sapiens); experiment: Inhibition of CDK12/13 in human Jurkat cells assessed as BRCA1 gene expression at 0.5 to 1 uM incubated for 4 hrs by RT-qPCR analysis; type: cell-based; design: scale not given: the % may be the effect or the level left; details: dose 0.5-1 µM
[13] = biological target: T1, Cyclin-dependent kinase 12/13 (Homo sapiens); experiment: Inhibition of CDK12/13 in human jurkat cells assessed as reduction in RNA polymerase 2 CTD phosphorylation at Ser2 residue at 5 uM measured after 6 hrs by immunoblotting analysis; type: cell-based
[14] = Downregulation of RNA polymerase 2 in human Jurkat cells at 5 uM measured after 6 hrs by immunoblotting analysis; type: functional
[15] = biological target: Cyclin-dependent kinase 12 (Homo sapiens) (UniProt Q9NYV4); experiment: Binding affinity to CDK12 in CDK12/CyclinK complex (unknown origin) assessed as increase in CDK12 mass at 10-fold excess concentration incubated for 1 hr by LC-MS analysis
[16] = Downregulation of RNA polymerase 2 CTD phosphorylation at Ser5 residue in human Jurkat cells at 1 uM incubated for 6 hrs by immunoblotting analysis; type: functional
[17] = biological target: DNA-dependent protein kinase catalytic subunit (Homo sapiens, UniProt P78527); experiment: Inhibition of human DNAPK by Invitrogen ADAPTA or Z'LYTE biochemical kinase assay
[18] = system: TC-71; experiment: Antitumor activity against human TC71 cells xenografted in nude mouse assessed as suppression of tumor growth at 10 mg/kg, ip for 21 days by caliper analysis; type: functional, organism-based; details: time 21.0 day
[19] = biological target: Ribosomal protein S6 kinase alpha-2 (Homo sapiens) (UniProt Q15349); experiment: Inhibition of ADP(ATP)-biotin probe binding to RSK3 domain 1 in human Kelly cells at 1 uM incubated for 6 hrs by KiNativ profiling analysis; type: cell-based
[20] = AUClast in Swiss albino mouse at 10 mg/kg, po measured upto 24 hrs by LC-MS/MS analysis; type: ADME, organism-based; design: route oral, dose 10 mg/kg, time <=24; details: in vivo
[21] = Downregulation of RNA polymerase 2 CTD phosphorylation at Ser7 residue in human Jurkat cells at 2.5 uM incubated for 6 hrs by immunoblotting analysis; type: functional
[22] = Antiproliferative activity against human TC71 cells assessed as reduction in cell viability; type: functional, cell-based; details: TC-71
[23] = Downregulation of RNA polymerase 2 CTD phosphorylation at Ser7 residue in human Jurkat cells at 0.5 uM incubated for 6 hrs by immunoblotting analysis; type: functional
[24] = biological target: Cyclin-dependent kinase 12 (Homo sapiens) (UniProt Q9NYV4); experiment: Covalent binding affinity to CDK12 in CDK12/CyclinK complex (unknown origin) assessed as covalent labeling of Cys1039 in gluc-protease digested CDK12 peptide 1025LASKMAPPDLPHWQDCHE1041 by CE-MS analysis

Chain of Cyclin-dependent kinase 12 (Homo sapiens) (Q9NYV4 whole entry, looked up): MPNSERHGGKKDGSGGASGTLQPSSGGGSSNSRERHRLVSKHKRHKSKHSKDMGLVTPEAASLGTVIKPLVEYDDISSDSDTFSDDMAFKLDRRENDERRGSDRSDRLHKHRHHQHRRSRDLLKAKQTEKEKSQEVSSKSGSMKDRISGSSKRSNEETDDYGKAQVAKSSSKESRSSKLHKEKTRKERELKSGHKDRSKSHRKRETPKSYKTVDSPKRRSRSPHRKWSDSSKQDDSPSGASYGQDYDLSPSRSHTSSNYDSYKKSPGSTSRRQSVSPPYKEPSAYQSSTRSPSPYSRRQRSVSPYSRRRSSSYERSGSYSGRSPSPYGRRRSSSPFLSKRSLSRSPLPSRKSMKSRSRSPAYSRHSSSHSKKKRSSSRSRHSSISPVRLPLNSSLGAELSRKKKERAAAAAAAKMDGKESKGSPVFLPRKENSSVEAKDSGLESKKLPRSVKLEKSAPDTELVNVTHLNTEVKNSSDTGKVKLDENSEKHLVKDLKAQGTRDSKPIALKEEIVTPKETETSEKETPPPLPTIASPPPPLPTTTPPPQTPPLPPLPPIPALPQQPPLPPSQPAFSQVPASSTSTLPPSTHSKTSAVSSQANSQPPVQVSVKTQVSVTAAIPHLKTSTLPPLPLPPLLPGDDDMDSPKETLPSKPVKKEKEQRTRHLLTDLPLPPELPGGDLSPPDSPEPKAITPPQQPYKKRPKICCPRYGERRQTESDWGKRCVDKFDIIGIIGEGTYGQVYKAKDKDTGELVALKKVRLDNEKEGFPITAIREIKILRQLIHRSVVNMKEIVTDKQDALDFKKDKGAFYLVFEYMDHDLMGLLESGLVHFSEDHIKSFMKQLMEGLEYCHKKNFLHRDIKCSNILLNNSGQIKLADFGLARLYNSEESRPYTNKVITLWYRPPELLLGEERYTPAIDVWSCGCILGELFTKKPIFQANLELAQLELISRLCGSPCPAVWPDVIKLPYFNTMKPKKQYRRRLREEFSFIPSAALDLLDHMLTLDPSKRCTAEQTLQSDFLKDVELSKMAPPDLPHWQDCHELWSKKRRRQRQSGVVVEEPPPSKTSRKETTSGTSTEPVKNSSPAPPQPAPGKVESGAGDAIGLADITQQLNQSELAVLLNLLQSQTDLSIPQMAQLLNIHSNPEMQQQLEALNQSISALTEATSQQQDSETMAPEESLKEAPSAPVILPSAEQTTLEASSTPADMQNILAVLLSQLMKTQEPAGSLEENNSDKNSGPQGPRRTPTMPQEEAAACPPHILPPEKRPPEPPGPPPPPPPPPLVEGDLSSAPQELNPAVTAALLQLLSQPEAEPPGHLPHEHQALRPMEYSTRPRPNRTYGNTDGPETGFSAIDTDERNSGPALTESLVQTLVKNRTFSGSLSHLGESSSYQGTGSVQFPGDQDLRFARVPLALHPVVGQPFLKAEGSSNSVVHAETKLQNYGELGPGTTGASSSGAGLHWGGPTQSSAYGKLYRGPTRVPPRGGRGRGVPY
Chain of Ribosomal protein S6 kinase alpha-2 (Homo sapiens) (Q15349 whole entry, the tested form may be a part): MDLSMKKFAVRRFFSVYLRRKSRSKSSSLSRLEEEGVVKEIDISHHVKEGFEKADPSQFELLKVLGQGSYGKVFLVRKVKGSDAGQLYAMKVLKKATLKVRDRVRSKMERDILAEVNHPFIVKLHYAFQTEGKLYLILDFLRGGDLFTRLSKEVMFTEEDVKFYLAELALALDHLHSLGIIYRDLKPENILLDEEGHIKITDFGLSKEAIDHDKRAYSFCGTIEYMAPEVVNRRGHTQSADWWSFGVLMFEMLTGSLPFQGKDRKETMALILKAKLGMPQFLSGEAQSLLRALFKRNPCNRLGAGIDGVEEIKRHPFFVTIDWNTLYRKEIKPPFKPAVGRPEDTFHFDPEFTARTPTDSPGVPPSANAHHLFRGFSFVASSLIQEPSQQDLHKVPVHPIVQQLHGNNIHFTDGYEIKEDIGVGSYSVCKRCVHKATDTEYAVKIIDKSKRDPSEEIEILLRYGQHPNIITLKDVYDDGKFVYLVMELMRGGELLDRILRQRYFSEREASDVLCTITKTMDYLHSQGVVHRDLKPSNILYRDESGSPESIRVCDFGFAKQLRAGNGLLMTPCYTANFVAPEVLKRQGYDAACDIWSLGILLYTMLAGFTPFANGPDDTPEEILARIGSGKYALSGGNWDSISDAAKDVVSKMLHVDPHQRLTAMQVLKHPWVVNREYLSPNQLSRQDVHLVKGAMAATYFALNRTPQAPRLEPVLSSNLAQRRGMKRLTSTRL
Chain of Serine/threonine-protein kinase 16 (Homo sapiens) (O75716 whole entry): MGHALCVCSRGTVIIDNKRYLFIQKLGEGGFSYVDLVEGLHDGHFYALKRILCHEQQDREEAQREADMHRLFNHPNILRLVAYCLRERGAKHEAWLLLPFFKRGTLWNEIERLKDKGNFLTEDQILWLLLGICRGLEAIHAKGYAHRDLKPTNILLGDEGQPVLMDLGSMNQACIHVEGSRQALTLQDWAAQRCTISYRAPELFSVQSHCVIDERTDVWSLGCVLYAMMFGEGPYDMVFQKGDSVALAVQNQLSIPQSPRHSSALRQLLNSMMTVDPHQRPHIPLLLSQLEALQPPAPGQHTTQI
Chain of Cyclin-dependent kinase 7 (Homo sapiens) (P50613 whole entry): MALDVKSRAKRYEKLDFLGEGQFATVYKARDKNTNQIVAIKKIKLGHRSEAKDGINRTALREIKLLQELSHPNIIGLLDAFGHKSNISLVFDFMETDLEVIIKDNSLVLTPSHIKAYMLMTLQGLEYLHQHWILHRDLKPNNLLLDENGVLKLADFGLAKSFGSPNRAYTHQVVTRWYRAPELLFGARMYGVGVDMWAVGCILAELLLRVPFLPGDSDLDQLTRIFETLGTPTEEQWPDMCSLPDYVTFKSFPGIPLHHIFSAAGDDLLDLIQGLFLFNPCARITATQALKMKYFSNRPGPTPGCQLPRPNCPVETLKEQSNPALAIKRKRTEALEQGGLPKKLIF
Chain of Cyclin-dependent kinase 13/Cyclin-K (Q14004 whole entry): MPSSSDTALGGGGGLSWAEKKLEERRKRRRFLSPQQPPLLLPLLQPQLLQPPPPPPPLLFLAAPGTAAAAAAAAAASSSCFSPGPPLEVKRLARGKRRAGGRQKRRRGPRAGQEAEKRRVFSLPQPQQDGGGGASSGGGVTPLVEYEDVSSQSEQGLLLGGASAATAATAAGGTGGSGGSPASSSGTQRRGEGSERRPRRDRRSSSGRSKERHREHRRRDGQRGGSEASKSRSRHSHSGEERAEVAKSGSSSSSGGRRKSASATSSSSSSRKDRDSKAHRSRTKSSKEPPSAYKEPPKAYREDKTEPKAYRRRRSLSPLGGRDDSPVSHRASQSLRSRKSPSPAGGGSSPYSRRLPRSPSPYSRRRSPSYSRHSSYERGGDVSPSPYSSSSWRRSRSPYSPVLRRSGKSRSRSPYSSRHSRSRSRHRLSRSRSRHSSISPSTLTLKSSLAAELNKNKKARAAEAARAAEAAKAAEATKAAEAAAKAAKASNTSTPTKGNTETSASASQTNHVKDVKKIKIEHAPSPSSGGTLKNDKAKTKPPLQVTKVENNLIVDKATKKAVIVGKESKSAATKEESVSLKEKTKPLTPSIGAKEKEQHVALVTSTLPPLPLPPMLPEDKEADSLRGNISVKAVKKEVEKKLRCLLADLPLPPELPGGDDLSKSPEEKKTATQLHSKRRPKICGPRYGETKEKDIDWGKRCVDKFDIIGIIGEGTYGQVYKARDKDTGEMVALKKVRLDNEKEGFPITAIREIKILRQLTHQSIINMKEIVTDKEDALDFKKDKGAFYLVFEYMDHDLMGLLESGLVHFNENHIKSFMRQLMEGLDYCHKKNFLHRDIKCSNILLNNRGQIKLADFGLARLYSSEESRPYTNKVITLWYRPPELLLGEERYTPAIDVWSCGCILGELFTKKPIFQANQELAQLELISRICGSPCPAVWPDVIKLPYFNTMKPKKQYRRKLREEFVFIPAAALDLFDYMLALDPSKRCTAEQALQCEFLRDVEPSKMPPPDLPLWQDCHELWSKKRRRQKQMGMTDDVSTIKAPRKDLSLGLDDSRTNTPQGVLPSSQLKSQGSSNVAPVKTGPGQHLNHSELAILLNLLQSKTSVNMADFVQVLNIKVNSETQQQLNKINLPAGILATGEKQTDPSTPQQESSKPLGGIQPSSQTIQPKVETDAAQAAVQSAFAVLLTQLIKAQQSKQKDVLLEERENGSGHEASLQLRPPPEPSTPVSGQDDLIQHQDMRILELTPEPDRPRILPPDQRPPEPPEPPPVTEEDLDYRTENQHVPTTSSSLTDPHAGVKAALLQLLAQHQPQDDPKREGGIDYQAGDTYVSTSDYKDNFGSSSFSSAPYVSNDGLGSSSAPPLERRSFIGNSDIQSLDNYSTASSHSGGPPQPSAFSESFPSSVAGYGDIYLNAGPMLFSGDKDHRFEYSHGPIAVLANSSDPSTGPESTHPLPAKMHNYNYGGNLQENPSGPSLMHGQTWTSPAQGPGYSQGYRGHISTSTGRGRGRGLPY
Chain of Cyclin-dependent kinase 13/Cyclin-K (O75909 whole entry, further chain): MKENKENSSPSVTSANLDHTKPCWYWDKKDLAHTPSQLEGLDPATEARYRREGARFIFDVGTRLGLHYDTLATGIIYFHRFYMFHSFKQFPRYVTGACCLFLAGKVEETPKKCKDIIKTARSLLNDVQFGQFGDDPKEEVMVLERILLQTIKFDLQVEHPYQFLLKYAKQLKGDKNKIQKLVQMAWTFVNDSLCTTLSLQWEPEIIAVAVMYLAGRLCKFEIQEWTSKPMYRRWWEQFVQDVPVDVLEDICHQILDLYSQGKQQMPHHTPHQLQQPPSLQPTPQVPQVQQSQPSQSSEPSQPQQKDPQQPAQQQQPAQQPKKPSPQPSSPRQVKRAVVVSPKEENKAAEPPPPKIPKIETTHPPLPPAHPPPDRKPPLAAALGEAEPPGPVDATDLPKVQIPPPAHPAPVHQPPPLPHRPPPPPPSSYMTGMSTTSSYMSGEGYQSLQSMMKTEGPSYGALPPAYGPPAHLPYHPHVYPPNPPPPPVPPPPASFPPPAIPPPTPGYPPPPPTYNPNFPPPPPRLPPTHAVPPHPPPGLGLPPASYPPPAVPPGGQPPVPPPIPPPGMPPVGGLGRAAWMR

inhibition [1]: 40.3% | inhibition [2]: Active | IC50 [3]: 283 nM | inhibition [4]: 42.4% | inhibition [7]: 39.2% | Activity [12]: 30% | inhibition [13]: 89% | Activity [15]: Active | IC50 [17]: > 10000 nM | inhibition [19]: 41.6% | AUClast [20]: 1043 ng·h/mL | Activity [24]: Active
Structure (SMILES): CN(C)C/C=C/C(=O)Nc1ccc(O[C@@H]2CCC[C@@H](Nc3ncc(Cl)c(-c4c[nH]c5ccccc45)n3)C2)cc1
inhibition at 2.5 µM [5]: 47% | inhibition at 0.5 µM [6]: 0% | Ratio IC50 [8]: 5 | IC50 [9]: 225 nM | inhibition at 5 µM [10]: 47% | Activity [11]: Toxic | inhibition at 5 µM [14]: 38% | inhibition at 1 µM [16]: 32% | Activity [18]: Active | inhibition at 2.5 µM [21]: 58% | IC50 [22]: 160 nM | inhibition at 0.5 µM [23]: 0%

From ChEMBL document CHEMBL4828703, “Structure-activity relationship study of THZ531 derivatives enables the discovery of BSJ-01-175 as a dual CDK12/13 covalent inhibitor with efficacy in Ewing sarcoma” (Eur J Med Chem, 2021)
